# Where a name gives a salt, the structure may show the parent alone.
# Experiments:
# [1] = test system: Human ovarian cancer cell OVCAR8 expressing GFP; assay: Uptake by cancer cell, confocal microscopy; type: cell-based; details: 50 nmol/mL, 24 hours, 37° C.
# Experimental: Human ovarian cancer cell OVCAR8 expressing green fluorescent protein (GFP) was used as a cancer cell. Cancer cell OVCAR8 was cultured on RPMI1640 medium containing 10% inactivated FBS and 1% penicillin/streptomycin in a culture dish having a diameter of 100 mm. Furthermore, the iodine atom-containing Hoechst compound (I-Hoechst-3HCl) (0.1 mg, 151.57 nmol) was dissolved in water (0.15 mL) to prepare a solution (the amount of Hoechst compound: 1 μmol/mL) containing the iodine atom-containing Hoechst compound. The solution was added to the culture solution such that the amount of the Hoechst compound in the culture solution became 50 nmol/mL and incubated in a CO2 incubator at 37° C. for 24 hours. Thereafter, the culture medium was removed and the cells were washed. The cells were observed by a confocal microscope. Cell nuclei can be detected based on staining with a Hoechst compound (blue color emission) and expression of GFP (green fluorescence). […]
# Nanoparticles (IH-BPMO) carrying an iodine atom-containing Hoechst (I-Hoechst) were added to a medium containing cancer cells and culture was performed for 24 hours in accordance with Test Example 8. Fluorescence was observed by a microscope.
# [2] = test system: ovarian cancer OVCAR8 cells; assay: Cytotoxicity test by LDH (lactate dehydrogenase) method; type: cell-based, Human
# Experimental: A Hoechst compound (normal compound containing no iodine atom) is generally considered to have low toxicity. The following experiment was carried out to confirm that iodine atom-containing Hoechst compounds have low toxicity. Iodine atom-containing Hoechst compounds (I-Hoechst, 3HCl) different in addition amount were each incubated with ovarian cancer OVCAR8 cells. Cytotoxicity was investigated by a commercially available kit in accordance with LDH (lactate dehydrogenase) method.
# Furthermore, the safety of the nanoparticles carrying an iodine atom-containing Hoechst compound is confirmed in the same manner as in Test Example 6.
# OVCAR8 tumor spheroid [3] = assay: Uptake into tumor spheroid, confocal microscopy; type: cell-based, Human; details: 5 nmol/mL
# Experimental: Human ovarian cancer cell OVCAR8 expressing green fluorescent protein (GFP) was used as a cancer cell. A tumor spheroid (hereinafter also referred to as “spheroid”) was formed from the cancer cell. Cancer cell OVCAR8 was cultured on RPMI1640 medium containing 10% inactivated FBS and 1% penicillin/streptomycin in a culture dish of 100 mm in diameter. For forming spheroids, […] of OVCAR8 cells were seeded in PrimeSurface96U culture plate (MS-9096U, Sumitomo Bakelite Co., Ltd). The OVCAR8 cells were cultured in a CO2 incubator at 37° C. for 7 days. Since the cells were not able to attach to a hydrophilic plate surface, the cells came together at the bottom of a well and formed three-dimensional spheroids at the bottom. In this manner, spheroids (estimated number of cells: approximately 100,000) of 500 μm in diameter were obtained.
# Subsequently, an iodine atom-containing Hoechst compound (I-Hoechst-3HCl) (0.1 mg, 151.57 nmol) was dissolved in water (1.5 mL) to prepare a solution containing the iodine atom-containing Hoechst compound (amount of the Hoechst compound: 100 nmol/mL). […]
# For the horizontal row, images in the column indicated by “GFP” are the observation results based on a fluorescence (green), whereas images in the column indicated by “I-Hoechst” are observation results based on staining (blue) with the Hoechst compound. […]
# OVCAR8 tumor spheroid [4] = assay: Destruction of spheroid by monochromatic X-ray irradiation; type: cell-based, Human; details: 30 minutes, then 3 days incubation
# Experimental: Irradiation of monochromatic X-rays was performed in beamline BL14B1 of large-scale synchrotron radiation facility SPring-8 located in Sayo-cho, Sayo-gun, Hyogo Prefecture, Japan. […] First, white X-ray generated from the bending magnet of SPring-8 was guided to an exit-position fixed two-crystal monochromator having silicon 311 crystal to generate a monoenergetic X-ray beam (monochromatic X-ray). SPring-8 storage ring was operated in the top-up mode under which fluctuation of X-ray intensity over time can be ignored due to a constant storage current of 100 mA to perform an irradiation experiment. The shape of the X-ray beam was controlled by using horizontal and vertical transport channel (TC) slits. The size of the X-ray beam at the position of a sample was 0.7 mm in height×1.4 mm in width. This is large enough to cover a spheroid having a size of 0.5 mm×0.5 mm. During experiments, the intensity of the X-ray beam was monitored in two ion chambers arranged on the optical axis. The X-ray transmitted was monitored by a CCD camera to control the position of the sample. […] Spheroids are placed at the bottom of tubes put in a sample rack.
# The iodine atom-containing Hoechst compound (I-Hoechst) and spheroids were incubated (24 hours) in the same manner as in Test Example 3 to obtain spheroids having the Hoechst compound taken up. The spheroids were put in tubes and the tubes were plated at the sample rack of the X-ray irradiation device. Since the sample rack is designed such that samples can be moved on the XYZ stage, the experimenter can perform X-ray irradiation by moving samples on the optical axis without entering the experimental hutch. After completion of X-ray irradiation to a sample, the sample rack is designed to automatically move such that the irradiation position faces the next sample. Thus, a series of X-ray irradiation can be automatically performed (see, FIG. 6). Before irradiation, the position of a sample was confirmed by an optical microscope and a laser, and monitored by a CCD camera during X-ray irradiation. Note that, since the energy of X-ray is extremely high, observation of spheroids and an absorption control of a tube by the CCD camera was not made. A refractive X-ray image of a tube was obtained to monitor of a sample position. The photon flux at a position of a sample was calculated as 3.9×10^8 (photons/second) by use of the SPECTRA code.
# The spheroids prepared as mentioned above were irradiated with a monochromatic X-ray (energy: 33.0 key, 33.2 keV or 33.4 keV) for 30 minutes. After X-ray radiation, spheroids were incubated in a CO2 incubator at 37° C. for 3 days and thereafter, observed by a confocal microscope (visible light and fluorescent light). […]
# [5] = test system: DNA double strand in OVCAR8 tumor spheroid; assay: γH2AX assay of spheroids immediately after monochromatic X-ray irradiation; type: cell-based, Human
# Experimental: For investigating the mechanism of how to destroy spheroids, spheroids were irradiated with a monochromatic X-ray for 30 minutes. Immediately after irradiation and before incubation, spheroids were subjected to γH2AX assay to confirm the state of a DNA double strand. In the γH2AX assay, if a double strand is cleaved, red fluorescence is emitted. The γH2AX assay was performed by use of a commercially available kit in accordance with the instructions attached thereto.
# [6] = test system: OVCAR8 tumor spheroid (hypoxic or normoxic); assay: Destruction of hypoxic spheroid by monochromatic X-ray irradiation; type: cell-based, Human; details: then monochromatic X-ray
# Experimental: The iodine atom-containing Hoechst compound (I-Hoechst) and spheroids were incubated (24 hours) in the same manner as in Test Example 3 to obtain spheroids having the Hoechst compound taken up therein. The spheroids were put in tubes and further incubated in a hypoxic (0% oxygen concentration) condition for further 18 hours. As a control, spheroids were incubated in a normal (not hypoxic) oxygen condition (20% oxygen concentration) in the same manner for 18 hours. After incubation in a hypoxic (or normoxic) condition, the spheroids were irradiated with monochromatic X-rays in the same manner as in Test Example 5. In the Test, whether spheroids are placed in a hypoxic condition was checked by inducing expression of a hypoxic marker, HIF-1α. Note that, HIF-1α is a kind of a hypoxia inducible factor and measurable by a commercially available kit.
# Furthermore, spheroids (nanoparticles carrying an iodine atom-containing Hoechst compound-spheroid) prepared in Test Example 8 are irradiated with monochromatic X-rays under a hypoxic condition in the same manner as in Test Example 7. It is confirmed that hypoxic spheroids irradiated with the X-rays are destroyed.
compound,measurement,setting,value
"CN1CCN(c2ccc3nc(-c4ccc5nc(-c6ccc(O)c(I)c6)[nH]c5c4)[nH]c3c2)CC1 [I-Hoechst-3HCl, Hoechst 33342 analog 2 trihydrochloride]",Uptake and localization in cancer cell,[1],"taken up within the cell, transported to the nucleus of the cell and localized in DNA"
same,Concentration at which no toxicity was shown (LDH method),[2],≤ 20 µM
same,Permeation into interior of spheroid,OVCAR8 tumor spheroid [3]; confocal microscope,reaches not only cells close to the surface of a spheroid but also cells located at the center of the spheroid
same,Uptake and distribution in spheroids,"OVCAR8 tumor spheroid [3]; incubation 1, 24, 96 hours",efficiently taken up by spheroids and uniformly distributed over the entire spheroids 24 hours later
"CN1CCN(c2ccc3nc(-c4ccc5nc(-c6ccc(O)cc6)[nH]c5c4)[nH]c3c2)CC1 [Hoechst 33258, reference compound]",Spheroid destruction,"OVCAR8 tumor spheroid [4]; any of the monochromatic X-rays (33.0, 33.2 or 33.4 keV)",spheroids were not destroyed
CN1CCN(c2ccc3nc(-c4ccc5nc(-c6ccc(O)c(I)c6)[nH]c5c4)[nH]c3c2)CC1 [Hoechst 33342 analog 2],DNA double strand break (γH2AX red fluorescence),"[5]; 33.0 keV, 30 minutes, immediately after irradiation",no DNA double strands were broken
same,DNA double strand break (γH2AX red fluorescence),"[5]; 33.2 keV, 30 minutes, immediately after irradiation",a DNA double strand was broken
same,DNA double strand break (γH2AX red fluorescence),"[5]; 33.4 keV, 30 minutes, immediately after irradiation",a DNA double strand was broken although the degree of double strand break is lower than the 33.2-keV monochromatic X-ray
same,DNA double strand break (γH2AX red fluorescence),[5]; no irradiation with monochromatic X-ray,no DNA double strands were broken
same,Spheroid destruction in hypoxic condition,[6]; 0% oxygen 18 hours,effectively destroyed
same,Spheroid destruction in normoxia condition,[6]; 20% oxygen 18 hours,effectively destroyed
same,Spheroid destruction,OVCAR8 tumor spheroid [4]; monochromatic X-ray 33.0 keV,spheroids were not destroyed
same,Spheroid destruction,OVCAR8 tumor spheroid [4]; monochromatic X-ray 33.2 keV,destroyed into pieces
same,Spheroid destruction,OVCAR8 tumor spheroid [4]; monochromatic X-ray 33.4 keV,spheroids were destroyed even though the degree of destruction was lower than the 33.2-keV monochromatic X-ray
